Data on 35 molecules can be found in patent US7851474B2, “Dipiperazinyl ketones and related analogues” (Neurogen Corporation, priority 2005, dated 2010).

The term Ki denotes the equilibrium dissociation constant of an inhibitor or competing ligand from its target.

SMILES strings stand for the structures.

T1 sequence (Q9Y5N1 with tags, fused parts or gaps E19D): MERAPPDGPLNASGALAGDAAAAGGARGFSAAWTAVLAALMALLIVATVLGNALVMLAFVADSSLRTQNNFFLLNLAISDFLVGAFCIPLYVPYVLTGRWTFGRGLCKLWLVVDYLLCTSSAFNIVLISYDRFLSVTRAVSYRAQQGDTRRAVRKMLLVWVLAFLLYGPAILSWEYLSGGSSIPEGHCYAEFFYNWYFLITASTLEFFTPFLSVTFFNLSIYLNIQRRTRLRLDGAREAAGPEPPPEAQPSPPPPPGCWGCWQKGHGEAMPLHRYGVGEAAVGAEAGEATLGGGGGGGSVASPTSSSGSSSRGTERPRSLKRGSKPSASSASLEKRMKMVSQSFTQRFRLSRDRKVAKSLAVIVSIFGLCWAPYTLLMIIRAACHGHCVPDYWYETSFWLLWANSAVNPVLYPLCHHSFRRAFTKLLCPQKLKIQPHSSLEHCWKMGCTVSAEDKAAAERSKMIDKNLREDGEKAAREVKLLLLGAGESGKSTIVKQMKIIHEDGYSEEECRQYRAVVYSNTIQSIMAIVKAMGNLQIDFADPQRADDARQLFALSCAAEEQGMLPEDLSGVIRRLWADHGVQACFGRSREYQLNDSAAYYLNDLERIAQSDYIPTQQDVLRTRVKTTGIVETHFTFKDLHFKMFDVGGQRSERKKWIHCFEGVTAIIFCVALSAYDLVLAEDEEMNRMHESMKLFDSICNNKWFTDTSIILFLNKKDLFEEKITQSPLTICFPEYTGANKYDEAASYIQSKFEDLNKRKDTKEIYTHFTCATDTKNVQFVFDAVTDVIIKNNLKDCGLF

One assay concerns the target T1, chimeric human H3 receptor (Homo sapiens, UniProt Q9Y5N1, E19D).
T1 construct: made in house; host or cells: Sf9 insect cells (baculovirus infection); P2 membrane preparation
Kind of assay: Chimeric human H3 receptor GTP binding assay (agonist-stimulated GTP-gamma35S binding, Example 7). It is filed as biochemical. As to conditions: "*" in Ki of Table II; assay of Example 7; read-out: Ki. The method in brief: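 IC50 values come from non-linear regression of dose-response curves of filter-bound GTP-gamma^35S, counted by scintillation. Membranes were from infected Sf9 cells carrying receptor plus G-protein subunits, 35 μg/tube, with 10 μM GDP present.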
For the molecule `O=C(CN1CCN(c2ccc(S(=O)(=O)Cc3ccccc3)cc2)CC1)N1CCN(C2CCC2)CC1` [Compound 460, 1-[4-(benzylsulfonyl)phenyl]-4-[2-(4-cyclobutylpiperazin-1-yl)-2-oxoethyl]piperazine], the Ki was under 1 µM.

On to `CC(=O)c1ccc(N2CCN(CC(=O)N3CCN(C4CCC4)CC3)CC2)cc1C(F)(F)F` [Compound 461, 1-[4-{4-[2-(4-cyclobutylpiperazin-1-yl)-2-oxoethyl]piperazin-1-yl}-2-(trifluoromethyl)phenyl] ethanone], for which the Ki is under 1 µM.

The same assay, now with this note: Table II "Ki", symbol "*": Ki in the assay of Example 7; read-out: Ki.
For `Cc1ccc(-c2cnc(N3CCN(CC(=O)N4CCN(C5CCC5)CC4)CC3)cn2)c(F)c1` [Compound 920, 2-{4-[2-(4-cyclobutylpiperazin-1-yl)-2-oxoethyl]piperazin-1-yl}-5-(2-fluoro-4-methylphenyl)pyrazine], the Ki is under 1 µM.

For `O=C(CN1CCN(c2cnc(-c3ccc(Cl)cc3)cn2)CC1)N1CCN(C2CCC2)CC1` [Compound 904, 2-(4-chlorophenyl)-5-{4-[2-(4-cyclobutylpiperazin-1-yl)-2-oxoethyl]piperazin-1-yl}pyrazine], the Ki is under 1 µM.

Consider `CCC(C)N1CCN(C(=O)CN2CCN(c3cccc(C)c3)CC2)CC1` (centres unmarked) [Compound 876, 1-sec-butyl-4-{[4-(3-methylphenyl)piperazin-1-yl]acetyl}piperazine], for which the Ki is under 1 µM.

Regarding `Cc1ccc(N2CCN(CC(=O)N3CCN(C(C)C)CC3)CC2)cc1` [Compound 850, 1-isopropyl-4-{[4-(4-methylphenyl)piperazin-1-yl]acetyl}piperazine], the Ki was under 1 µM.

In the case of `CC(C)c1cccc(-c2cnc(N3CCN(CC(=O)N4CCN(C5CCC5)CC4)CC3)cn2)c1` [Compound 926, 2-{4-[2-(4-cyclobutylpiperazin-1-yl)-2-oxoethyl]piperazin-1-yl}-5-(3-isopropylphenyl)pyrazine], the Ki was under 1 µM.

For the molecule `O=C(CN1CCN(c2nc3ccccc3n2Cc2ccc(F)cc2)CC1)N1CCN(C2CCC2)CC1` [Compound 915, 2-{4-[2-(4-cyclobutylpiperazin-1-yl)-2-oxoethyl]piperazin-1-yl}-1-(4-fluorobenzyl)-1H-benzimidazole], the Ki was under 1 µM.

As for `O=C(CN1CCN(c2ccc(-c3ccc(Oc4ccccc4)cc3)cc2)CC1)N1CCN(C2CCC2)CC1` [Compound 787, 1-cyclobutyl-4-{[4-(4′-phenoxybiphenyl-4-yl)piperazin-1-yl]acetyl}piperazine], the Ki was under 1 µM.

The same assay, now with this note: Table II, "*" in Ki; assay of Example 7; read-out: Ki.
For the molecule `O=C(CN1CCN(c2ccc(-c3cc(F)cc(F)c3)cc2)CC1)N1CCN(C2CCC2)CC1` [Compound 740, 1-cyclobutyl-4-{[4-(3′,5′-difluorobiphenyl-4-yl)piperazin-1-yl]acetyl}piperazine], the Ki is under 1 µM.

`O=C(CN1CCN(c2ccc(-c3ccccc3Oc3ccccc3)cc2)CC1)N1CCN(C2CCC2)CC1` [Compound 719, 1-cyclobutyl-4-{[4-(2′-phenoxybiphenyl-4-yl)piperazin-1-yl]acetyl}piperazine]: the Ki is under 1 µM.

With `COc1cccc(OC)c1-c1ccc(N2CCN(CC(=O)N3CCN(C4CCC4)CC3)CC2)cc1` [Compound 695, 1-cyclobutyl-4-{[4-(2′,6′-dimethoxybiphenyl-4-yl)piperazin-1-yl]acetyl}piperazine], the Ki is under 1 µM.

Regarding `CC1CCCCN1C(=O)c1ccc(N2CCN(CC(=O)N3CCN(C4CCC4)CC3)CC2)nc1` (centres unmarked) [Compound 651, 1-cyclobutyl-4-[(4-{5-[(2-methylpiperidin-1-yl)carbonyl]pyridin-2-yl}piperazin-1-yl)acetyl]piperazine], the Ki was under 1 µM.

Consider `CC(Oc1ccccc1)C(=O)N1CCN(CC(=O)N2CCN(C3CCC3)CC2)CC1` (centres unmarked) [Compound 720, 1-cyclobutyl-4-{[4-(2-phenoxypropanoyl)piperazin-1-yl]acetyl}piperazine], for which the Ki was under 1 µM.

`Cc1ccc(N2CCN(CC(=O)N3CCN(C4CCC4)CC3)CC2)cc1C` [Compound 736, 1-cyclobutyl-4-{[4-(3,4-dimethylphenyl)piperazin-1-yl]acetyl}piperazine]: the Ki is under 1 µM.

The assay is the same for the next values; noted with them: Table II; assay of Example 7; "*" in Ki; read-out: Ki.
Turning to `Cc1ccc(-c2ccc(N3CCN(CC(=O)N4CCN(C5CCC5)CC4)CC3)nn2)cc1C` [Compound 1015, 3-{4-[2-(4-cyclobutylpiperazin-1-yl)-2-oxoethyl]piperazin-1-yl}-6-(3,4-dimethylphenyl) pyridazine], the Ki was under 1 µM.

Consider `CC(C)CCNC(=O)c1ccc(N2CCN(CC(=O)N3CCN(C4CCC4)CC3)CC2)cc1` [Compound 1136, 4-{4-[2-(4-cyclobutylpiperazin-1-yl)-2-oxoethyl]piperazin-1-yl}-N-(3-methylbutyl)benzamide], for which the Ki is under 1 µM.

With `O=C(CN1CCN(c2ccc(-c3cccc(OC(F)(F)F)c3)nn2)CC1)N1CCN(C2CCC2)CC1` [Compound 1024, 3-{4-[2-(4-cyclobutylpiperazin-1-yl)-2-oxoethyl]piperazin-1-yl}-6-[3-(trifluoromethoxy)phenyl} pyridazine], the Ki was under 1 µM.

With `Cc1ccc(N2CCN(CC(=O)N3CCN(C4CCC4)CC3)CC2C)cc1` (centres unmarked) [Compound 1105, 4-[2-(4-cyclobutylpiperazin-1-yl)-2-oxoethyl]-2-methyl-1-(4-methylphenyl)piperazine], the Ki is under 1 µM.

Turning to `CC1CCCN1C(=O)c1ccc(N2CCN(CC(=O)N3CCN(C4CCC4)CC3)CC2)nn1` (centres unmarked) [Compound 1064, 3-{4-[2-(4-cyclobutylpiperazin-1-yl)-2-oxoethyl]piperazin-1-yl}-6-[(2-methylpyrrolidin-1-yl)carbonyl]pyridazine], the Ki was under 1 µM.

Staying with this assay, now noted: assay of Example 7; "*" in Ki of Table II; read-out: Ki.
Regarding `Cc1ccc(C(=O)NC2CCN(CC(=O)N3CCN(C4CCC4)CC3)CC2)cc1C` [Compound 1212, N-{1-[2-(4-cyclobutylpiperazin-1-yl)-2-oxoethyl]piperidin-4-yl}-3,4-dimethylbenzamide], the inhibition constant Ki is under 1 µM.

For `O=C(CCC1CCCC1)NC1CCN(CC(=O)N2CCN(C3CCC3)CC2)CC1` [Compound 1215, N-{1-[2-(4-cyclobutylpiperazin-1-yl)-2-oxoethyl]piperidin-4-yl}-cyclopentylpropanamide], the Ki was under 1 µM.

Regarding `CCCNC(=O)c1ccc(N2CCN(CC(=O)N3CCN(C4CCC4)CC3)CC2)nc1` [Compound 1175, 6-{4-[2-(4-cyclobutylpiperazin-1-yl)-2-oxoethyl]piperazin-1-yl}-N-propylnicotinamide], the Ki is under 1 µM.

Consider `O=C(NCC1CCCCC1)c1ccc(N2CCN(CC(=O)N3CCN(C4CCC4)CC3)CC2)cc1` [Compound 1144, 4-{4-[2-(4-cyclobutylpiperazin-1-yl)-2-oxoethyl]piperazin-1-yl}-N-(cyclohexylmethyl) benzamide], for which the Ki was under 1 µM.

Take `CC(C)(C)CC(=O)NC1CCN(CC(=O)N2CCN(C3CCC3)CC2)CC1` [Compound 1216, N-{1-[2-(4-cyclobutylpiperazin-1-yl)-2-oxoethyl]piperidin-4-yl}-3,3-dimethylbutanamide]: the inhibition constant Ki was under 1 µM.

On to `N#Cc1ccc(N2CCN(CC(=O)N3CCN(C4CCC4)CC3)CC2)nn1` [Compound 1189, 6-{4-[2-(4-cyclobutylpiperazin-1-yl)-2-oxoethyl]piperazin-1-yl}pyridazine-3-carbonitrile], for which the Ki was under 1 µM.

The assay is the same for the next values; noted with them: assay of Example 7; symbol * in column headed Ki of Table II; read-out: Ki.
Take `CC(=O)c1ccc(N2CCN(CC(=O)N3CCN(C4CCCCC4)CC3)CC2)cc1` [Compound 321, 1-(4-{4-[2-(4-cyclohexylpiperazin-1-yl)-2-oxoethyl]piperazin-1-yl}phenyl)ethanone]: the Ki is under 1 µM.

For the molecule `O=C(c1ccccc1)c1ccc(N2CCN(CC(=O)N3CCN(C4CCCC4)CC3)CC2)cc1` [Compound 251, (4-{4-[2-(4-cyclopentylpiperazin-1-yl)-2-oxoethyl]piperazin-1-yl}phenyl)(phenyl)methanone], the Ki is under 1 µM.

On to `O=C(CN1CCN(c2ccc(F)cc2F)CC1)N1C[C@H]2C[C@@H]1CN2C1CCC1` [Compound 247, (1R,4R)-2-cyclobutyl-5-{[4-(2,4-difluorophenyl)piperazin-1-yl]acetyl}-2,5-diaza bicyclo[2.2.1]heptane], for which the Ki is under 1 µM.

As to `CCC(=O)c1ccc(N2CCN(CC(=O)N3CCN(C4CCCC4)CC3)CC2)cc1` [Compound 324, 1-(4-{4-[2-(4-cyclopentylpiperazin-1-yl)-2-oxoethyl]piperazin-1-yl}phenyl)propan-1-one], the Ki was under 1 µM.

Take `CC(=O)c1ccc(N2CCN(CC(=O)N3CCN(C4CCC4)CC3C)CC2)cc1` (centres unmarked) [Compound 304, 1-(4-{4-[2-(4-cyclobutyl-2-methylpiperazin-1-yl)-2-oxoethyl]piperazin-1-yl}phenyl)ethanone]: the Ki is under 1 µM.

For `O=C(CN1CCN(c2ccc(Cl)cc2)CC1)N1CCN(C2CCCC2)CC1` [Compound 358, 1-(4-chlorophenyl)-4-[2-(4-cyclopentylpiperazin-1-yl)-2-oxoethyl]piperazine], the Ki was under 1 µM.

As to `CC(C)(C)C(=O)c1ccc(N2CCN(CC(=O)N3CCN(C4CCCC4)CC3)CC2)cc1` [Compound 326, 1-(4-{4-[2-(4-cyclopentylpiperazin-1-yl)-2-oxoethyl]piperazin-1-yl}phenyl)-2,2-dimethylpropan-1-one], the Ki is under 1 µM.

On to `CC(=O)c1cnc(N2CCN(CC(=O)N3CCN(C4CCC4)CC3)CC2)cn1` [Compound 362, 1-(5-{4-[2-(4-cyclobutylpiperazin-1-yl)-2-oxoethyl]piperazin-1-yl}pyrazin-2-yl)ethanone], for which the Ki was under 1 µM.

Take `CC(=O)c1ccc(N2CCN(CC(=O)N3CCN(CC(C)C)CC3)CC2)cc1` [Compound 328, 1-(4-{4-[2-(4-isobutylpiperazin-1-yl)-2-oxoethyl]piperazin-1-yl}phenyl)ethanone]: the Ki is under 1 µM.
